A word on the melting point: it is the temperature, or range, at which the solid turns liquid.

Structures are written as SMILES.

The compound `COc1ccc(-c2cc(=Nc3c(C)cc(C)cc3C)n(C)c(=NCc3ccccc3)n2C)cc1OC` registered a melting point of 97 to 100 °C.
Then `CN1Cc2ccccc2CC1c1ccc(C(C)(C)C)cc1` (configuration not stated), with 53 to 54.5 °C; and `CC(C)(C)c1cc(SC(Sc2cc(C(C)(C)C)c(O)c(C(C)(C)C)c2)c2cc(C(C)(C)C)c(O)c(C(C)(C)C)c2)cc(C(C)(C)C)c1O`, with 175 to 177 °C.
Under `CN(Cc1ccc(CCn2cnc3cc(-c4ccc(Cl)cc4)sc3c2=O)cc1)S(C)(=O)=O` stands 230 to 232 °C.
In turn, `O[C@@H]1[C@H](O)[C@H](O)CO[C@H]1n1c(Br)nc2cc(Cl)ccc21` registered a melting point of 120 °C.
Under `Cc1c(C(=O)O)c[nH]c1C(=O)c1ccccc1` stands 241 to 243 °C.
Then `COc1ccc(S(=O)(=O)N2Cc3cc4c(cc3CC2C(=O)NO)OCO4)cc1` (configuration not stated), with 166 °C; and `COc1c(Cl)cc(OCC=C(Cl)Cl)cc1C=O`, with 78 °C; and `NC(=NO)c1c(F)cccc1Cl`, with 115 to 120 °C.
Under `CCOC(=O)C(=O)Nc1cc(Cl)c(Cl)c(Cl)c1` stands 148 to 151 °C; under `COc1ccc(CC2Cc3cccc(-c4cccc(C(=O)NCCN5CCCC5)c4)c3O2)cc1OC` (configuration not stated), 134 to 135 °C; under `CNC(=O)CN1CCC(O)C1=O` (configuration not stated), 129 to 130 °C.
The compound `CC(C)(C)c1cc(CN2CCN(c3ccc([N+](=O)[O-])cc3)CC2)cc(C(C)(C)C)c1O` gave a melting point of 178 °C.
Then `CCOC(=O)c1ccc(NCc2cc3c(cc2O)CCCO3)cc1`, with 150 °C; and `CC(=O)N1N=C(c2ccncc2)OC1c1c(F)cccc1F` (configuration not stated), with 119 to 121 °C; and `Cn1c(CO)nc([N+](=O)[O-])c1C#N`, with 122 to 124 °C.
`CN(CCOc1ccc(CC2SC(=O)NC2=O)cc1)c1nc2ccccc2s1` (configuration not stated) showed a melting point of 167 to 168 °C.
Under `COC(=O)c1ccc2ncc(C3CCN(C)CC3)c-2[nH]1` stands 200 to 201 °C; under `O=c1c2c(Cl)cc(Cl)cc2n(Cc2ccccc2)c(=O)n1Cc1cccc(I)c1`, 155 to 157 °C; under `CSc1ccc(-n2c(-c3ccccc3)nc(SC)c(C#N)c2=O)cc1`, 204 to 205 °C.
Then `CN1CCc2cc(O)c(O)cc2C1C1(c2ccc3ccccc3c2)CCC1` (configuration not stated), with 150 to 153 °C; and `CCC1Cn2c(ncc(C(N)=O)c2=O)-c2ccccc21` (configuration not stated), with 197 to 202 °C; and `CCC1(CC)c2ccc(C)cc2C(CC)(CC)N1OC(C)=O`, with 76 to 78 °C.
Under `COc1oc(-c2ccc(NS(=O)(=O)c3sc4ccc(F)cc4c3C)c(S(C)(=O)=O)c2)nc1C` stands 232 to 233 °C.
Take `N#Cc1ccc2[nH]cc(CCN3C(=O)c4ccccc4C3=O)c2c1`: the melting point lay in the range of 217 to 221 °C.
Under `O=C1NCCCN1C1(CO)CCNCC1` stands 162 °C.
Then `CCCn1c(=O)c2[nH]c(/C=C/c3ccc(OC)cc3OC)nc2n(CCC)c1=O`, with 273 to 274 °C; and `CN(C)C(=O)COc1ccc2c(c1)C[C@@H](NC[C@H](O)c1ccc(O)cc1)CC2`, with 169 to 172 °C.
Then `CN(C)c1ncc(-c2cc(Cl)cc(Cl)c2Cl)c(N)n1`, with 145 to 147 °C; and `CC(C)(C)C=C[C@H](O)c1ccc(F)cc1`, with 38 to 40 °C; and `CCCOc1cccc(-c2ccc3c(c2)C=C(C(=O)Nc2ccc(CN(C)C4CCOCC4)cc2)CCS3(=O)=O)c1`, with 219 to 221 °C.
Regarding `CCC1(CC)c2ccccc2C(CC)(CC)N1OC(COC(C)(C)C)c1ccccc1` (configuration not stated), the melting point was in the range of 85 to 86 °C.
Under `CNC(=O)Cn1c(-c2cccc(Br)c2)nc2cccnc21` stands 199 to 201 °C; under `CC(C)(C)c1cc(C(=O)Cl)cc(C(C)(C)C)c1O`, 90 to 93 °C; under `Cc1cc2c(-c3ccccc3F)nc(=O)[nH]c2s1`, 282 to 284 °C.
Under `CCCCCCCCCCCCn1nnc(CC(=O)O)n1` stands 70 to 73 °C; under `CC(=O)OCCCN1CCC(CNC(=O)[C@@H]2CCCN2S(=O)(=O)c2ccc(Cl)c(COc3cccc4c(-n5cncn5)cc(C)nc34)c2Cl)CC1`, 120 °C; under `O=S(=O)(Nc1cccc(CCOCc2noc(-c3ccc(C(F)(F)F)cc3)n2)c1)C(F)(F)F`, 83 to 86 °C.
Then `O=c1c2c[nH]c3c(c-2nn1-c1ccc(Cl)cc1)COCC3`, with 335 to 337 °C.
Compound `N#CCN1C(=O)COc2cc(F)ccc21` had a melting point of 111 to 113 °C.
Under `CCOc1ccc(C2=NN(C3CCN(C(C)=O)CC3)C(=O)[C@@H]3CC=CC[C@H]23)cc1OCC` stands 148 to 150 °C; under `CC1COCC(C)N1c1ccc(-c2nc(C(=O)Nc3nccs3)c(-c3ccc(Cl)cc3)[nH]2)cc1` (configuration not stated), more than 250 °C; under `CC(C)(C)c1nc2cc(N3CCOCC3)c(N)cc2s1`, 158 to 159 °C.
In turn, `Cc1oc(-c2ccco2)nc1CCOc1ccc(C#N)cc1` displayed a melting point of 105 to 108 °C.
Under `Cc1ccc(S(=O)(=O)ON=C(C#N)c2ccccc2)cc1` stands 131 to 132 °C.
Under `O=C1NC(=O)C(c2ccccc2)(c2c[nH]c3ccccc23)N1` (configuration not stated) stands 302 to 303 °C; under `O=C=Nc1ccc(OC(=O)COCCOCC(=O)Oc2ccc(N=C=O)cc2)cc1`, 139 to 142 °C.
Under `OCC1CCCc2c1ncn2C(c1ccccc1)(c1ccccc1)c1ccccc1` (configuration not stated) stands 168 to 170 °C; under `CCCCCCCNC(=O)c1cnc2cccc(C)n2c1=O`, 118 to 120 °C.
`CCOCn1c(-c2cc(F)cc(F)c2)c(C#N)c(Br)c1C(F)(F)F` gave a melting point of 74 to 75 °C.
Then `N#Cc1cccc(S(=O)(=O)N2CCn3c(c(C(N)=O)c(Cl)c3-c3ccccc3)C2)c1`, with 243 to 245 °C; and `CCOC(=O)COc1ccc(NC(=O)OC(C)(C)C)cc1Cl`, with 119 to 120 °C; and `CC(C)c1ccc(-c2csc(-c3ccc(C(=O)O)cc3)n2)cc1`, with 257 to 258 °C.
`COC(=O)C1CN(C(=O)c2ccccc2-n2cccn2)c2ccc(C)cc2CN1S(=O)(=O)c1ccc(OC)cc1` (configuration not stated) gave a melting point of 240 to 242 °C.
Under `O=C1CC2CCSc3sccc3C2=NN1c1ccc(Cl)cc1` (configuration not stated) stands 134 to 135 °C.
`CC(=O)Nc1nc2c(s1)-c1c(cnn1-c1ccc(C(=O)N3CCC(NC(=O)Cc4ccccc4)CC3)cc1)CC2`: the melting point is 271 to 272 °C.
Under `Cc1nc(-c2ccc(F)cc2)c(COc2ccc(-c3nc4cc(C(=O)O)ccc4n3C3CCCCC3)cc2)s1` stands 196 to 198 °C; under `Nc1cccc(-c2ccc(CCN3CCc4ccccc4C3)cc2)n1`, 130 to 132 °C.
Consider `CS(=O)(=O)Nc1cc2occ(N(C=O)CC(=O)O)c(=O)c2cc1Oc1ccccc1`, for which the melting point fell in the range of 98 to 100 °C.
Then `COc1ccc(CN(C)CCc2ccc(NC(=O)c3cccc4c(=O)c5cc(F)ccc5sc34)cc2)cc1OC`, with 205 °C; and `CS(=O)(=O)OC1CCN(c2ccc(N)cc2)C1` (configuration not stated), with 203 °C.
Then `CSC(=N[N+](=O)[O-])N(Cc1cnc(Cl)s1)C(C)=O`, with 77 to 78 °C.

The values are drawn from a melting point compilation (Tetko et al.; mined from patent text by program, amines drawn as free bases though some values may be those of a salt).
